Laboratory results taken from patent US10376498B2, “3-alkyl pyridinium compound from red sea sponge with potent antiviral activity” (priority 2014, dated 2019).

Target: T1, West Nile Virus NS3 protease (West Nile virus, UniProt P06935, DELINS1467-1501GGGGSGGGG)
T1 construct: truncated form of West Nile NS3 protease (residues 1-186); purchased AnaSep (AnaSpec), San Jose, Calif., USA
T1 sequence (P06935 with tags, fused parts or gaps DELINS1467-1501GGGGSGGGG): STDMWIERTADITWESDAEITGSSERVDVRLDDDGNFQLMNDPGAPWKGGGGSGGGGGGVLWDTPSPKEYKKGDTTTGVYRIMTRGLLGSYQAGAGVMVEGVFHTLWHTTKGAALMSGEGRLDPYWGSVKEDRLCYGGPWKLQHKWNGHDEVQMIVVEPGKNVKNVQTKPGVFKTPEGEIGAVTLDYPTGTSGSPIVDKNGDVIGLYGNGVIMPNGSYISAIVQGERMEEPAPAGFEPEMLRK
Assay: West Nile Virus NS3 protease inhibition assay (SensoLyte 440 kit)
Type: biochemical
Conditions: LOPAC compounds clustering with fraction 2
Experimental: The SPE fraction was further fractionated in order to isolate the prominent peaks identified by LC-MS using the technique of HPLC and determined retention times.
The West Nile Virus NS3 protease inhibition assay was carried out using the commercial kit SensoLyte® 440 West Nile Virus Protease Assay Kit (AnaSep, San Jose, Calif., USA). The protease is a truncated form of West Nile NS3 protease (residues 1-186) connected to it is NS2B cofactor (residues 49-96) by the linker sequence, […]. Protease activity was assessed by its ability to cleave the fluorogenic peptide Pyr-RTKRAMC, and the subsequent production of free AMC (7-amino-4-methylcoumarin) fluorophores. All extracts and controls were performed with three replicates in a 384-well plate format, each with a total reaction mixture of 33 μl. To begin, the test extracts and protease solution were incubated at 37° C. for 10 min before the addition of the pre-heated substrate. After substrate addition and gentle mixing the reaction was incubated at 37° C. for one hour. The fluorophore was detected with the use of a SpectraMax® Paradigm® Multimode Microplate Detection Platform (Molecular Devices, Sunnyvale, Calif., USA) by scanning at 354 nm excitation wavelength and 442 n emission wavelength.

| SMILES | inhibition of the WNV NS protease (in words) |
| --- | --- |
| C[C@]12C[C@H](O)[C@H]3[C@@H](CCC4=CC(=O)CC[C@@]43C)[C@@H]1CC[C@@H]2C(=O)CO (single isomer, unassigned) [Corticosterone] | no inhibition |
| Clc1nccc2c1ccc1ccccc12 [CBIQ] | no inhibition |
| C[C@@H]1C(=O)NC2=Nc3cccc(Cl)c3CN21 [Quazinone] | no inhibition |
| O.O.O=c1c(O)c(-c2ccc(O)c(O)c2)oc2cc(O)cc(O)c12 [Quercetin dehydrate] | no inhibition |
| CCN1/C(=C/C(C)=O)Sc2ccc(OC)cc21 [TG003] | no inhibition |
